Consider six molecules from patent US20050239358A1, “Antimicrobial melamine resin and products made therefrom” (MICROBAN PRODUCTS COMPANY, priority 2002, published 2005).

In series [1] the test system is bacteria and fungi. Kind of series: antimicrobial efficacy of agents in melamine formaldehyde resin. The following applies: agent for melamine resin; stated in words, no test described.
For series [2] the following is noted: at 20° C.; cited from earlier work.

For `O=c1[nH]sc2ccccc12` [1,2-benzisothiazolin-3-one], the “efficacy as antimicrobial agent” value in series [1] is recorded as “efficacious”. `CCCCCCCCn1sc(Cl)c(Cl)c1=O` [4,5-dichloro-2-N-octyl-3(2H)-isothiazolone]: the “efficacy as antimicrobial agent” value in series [1] is “efficacious”. As to `CCCCn1sc2ccccc2c1=O` [N-butyl-1,2-benzisothiazolin-3-one], in series [1], the “efficacy as antimicrobial agent” value is “efficacious”. With `Oc1cc(Cl)ccc1Oc1ccc(Cl)cc1Cl` [Triclosan, 2,4,4′-trichloro-2′-hydroxydiphenyl ether], in series [1], the “efficacy as antimicrobial agent” value is “particularly efficacious”. In series [2], the vapor pressure was 4×10^−4 mm.

`Cn1sc(Cl)cc1=O` [chloro-2-methyl-3(2H)-isothiazolone]: the “efficacy as antimicrobial agent” value in series [1] is “efficacious”. As to `Cn1sccc1=O` [methyl-3(2H)-isothiazolone], in series [1], the “efficacy as antimicrobial agent” value was “efficacious”.
